In publication PMC6858350, “A common mechanism allows selective targeting of GluN2B subunit-containing N-methyl-D-aspartate receptors” (Communications Biology, 2019):

Tests used:
[1] = target: GluN1-1a/GluN2B NMDAR (wildtype) (Rattus norvegicus, UniProt P35439+Q00960); format: cell-based; conditions: for IC50 / p (slope of the dose-response curve) / A2 ± SE (maximum inhibition from dose-response curve): TEVC, wildtype; for IC50: holding potential −70 mV, 10 µM glycine and 10 µM (S)-glutamate, read-out: IC50 ± SE; for p (slope of the dose-response curve) / A2 ± SE (maximum inhibition from dose-response curve): −70 mV; for A2 ± SE (maximum inhibition from dose-response curve): flexible A2; for IC50 shift compared to rac-1: wildtype GluN1-1a/GluN2B, IC50 increase relative to rac-1; for inhibition at 10 µM: read-out: ion current inhibition % ± SEM, GluN2B
GluN1-1a WT/GluN2B F176Y [2] = target: T1, GluN1-1a WT/GluN2B F176Y (Rattus norvegicus, UniProt P35439+Q00960, F176Y); conditions: GluN2B F176Y; for A2, fixed-to-wildtype (*): maximum inhibition fixed to wildtype value
GluN1-1a F113S/GluN2B WT [3] = target: T2, GluN1-1a F113S/GluN2B WT (Rattus norvegicus, UniProt P35439+Q00960, F113S); conditions: GluN1-1a F113S; for A2 ± SE: flexible A2
[4] = tested on: NMDA receptor-dependent EPSCs in CA1 pyramidal neurons; experiment: whole cell patch-clamp of evoked NMDAR-dependent EPSCs in hippocampal slices; format: cell-based, C57BL/6J mice; conditions: n = 5; for EPSC amplitude after washout, % of the initial baseline (SEM): washout of compound
GluN1-1a/GluN2A NMDAR = GluN1-1a/GluN2A NMDAR (Rattus norvegicus, UniProt P35439+Q00959); experiment: cell-based; conditions: read-out: ion current inhibition % ± SEM, GluN2A
GluN1-1a L135N/GluN2B WT [5] = target: T3, GluN1-1a L135N/GluN2B WT (Rattus norvegicus, UniProt P35439+Q00960, L135N); conditions: GluN1-1a L135N; for A2 ± SE: flexible A2
GluN1-1a WT/GluN2B F114A [6] = target: T4, GluN1-1a WT/GluN2B F114A (Rattus norvegicus, UniProt P35439+Q00960, F114A); experiment: cell-based
GluN1-1a/GluN2D NMDAR = GluN1-1a/GluN2D NMDAR (Rattus norvegicus, UniProt P35439+Q62645); experiment: cell-based; conditions: read-out: ion current inhibition % ± SEM, GluN2D
GluN1-1a Y109S/GluN2B WT [7] = target: T5, GluN1-1a Y109S/GluN2B WT (Rattus norvegicus, UniProt P35439+Q00960, Y109S); conditions: GluN1-1a Y109S; for A2 ± SE: flexible A2
GluN1-1a WT/GluN2B F176Y [8] = target: T1, GluN1-1a WT/GluN2B F176Y; experiment: cell-based
GluN1-1a WT/GluN2B I111A [9] = target: T6, GluN1-1a WT/GluN2B I111A (Rattus norvegicus, UniProt P35439+Q00960, I111A); experiment: cell-based
GluN1-1a S132A/GluN2B WT [10] = target: T7, GluN1-1a S132A/GluN2B WT (Rattus norvegicus, UniProt P35439+Q00960, S132A); conditions: GluN1-1a S132A; for A2 ± SE: flexible A2
GluN1-1a WT/GluN2B F176A [11] = target: T8, GluN1-1a WT/GluN2B F176A (Rattus norvegicus, UniProt P35439+Q00960, F176A); conditions: GluN2B F176A; for A2, fixed-to-wildtype (*): maximum inhibition fixed to wildtype value
GluN1-1a WT/GluN2B E236A [12] = target: T9, GluN1-1a WT/GluN2B E236A (Rattus norvegicus, UniProt P35439+Q00960, E236A); experiment: cell-based
GluN1-1a WT/GluN2B Q110A [13] = target: T10, GluN1-1a WT/GluN2B Q110A (Rattus norvegicus, UniProt P35439+Q00960, Q110A); experiment: cell-based
GluN1-1a WT/GluN2B F176A [14] = target: T8, GluN1-1a WT/GluN2B F176A; experiment: cell-based
GluN1-1a WT/GluN2B E236A [15] = target: T9, GluN1-1a WT/GluN2B E236A; conditions: GluN2B E236A; for A2 ± SE: flexible A2
GluN1-1a S132A/GluN2B WT [16] = target: T7, GluN1-1a S132A/GluN2B WT; experiment: cell-based
GluN1-1a F113S/GluN2B WT [17] = target: T2, GluN1-1a F113S/GluN2B WT; experiment: cell-based
GluN1-1a WT/GluN2B F114A [18] = target: T4, GluN1-1a WT/GluN2B F114A; conditions: GluN2B F114A; for A2, fixed-to-wildtype (*): maximum inhibition fixed to wildtype value
GluN1-1a L135N/GluN2B WT [19] = target: T3, GluN1-1a L135N/GluN2B WT; experiment: cell-based
GluN1-1a/GluN2C NMDAR = GluN1-1a/GluN2C NMDAR (Rattus norvegicus, UniProt P35439+Q00961); experiment: cell-based; conditions: read-out: ion current inhibition % ± SEM, GluN2C
GluN1-1a Y109S/GluN2B WT [20] = target: T5, GluN1-1a Y109S/GluN2B WT; experiment: cell-based
GluN1-1a WT/GluN2B Q110A [21] = target: T10, GluN1-1a WT/GluN2B Q110A; conditions: GluN2B Q110A; for A2 ± SE: flexible A2
GluN1-1a WT/GluN2B I111A [22] = target: T6, GluN1-1a WT/GluN2B I111A; conditions: GluN2B I111A; for A2 ± SE: flexible A2

T4 sequence (Q00960 27-1482 F114A, other chains not shown): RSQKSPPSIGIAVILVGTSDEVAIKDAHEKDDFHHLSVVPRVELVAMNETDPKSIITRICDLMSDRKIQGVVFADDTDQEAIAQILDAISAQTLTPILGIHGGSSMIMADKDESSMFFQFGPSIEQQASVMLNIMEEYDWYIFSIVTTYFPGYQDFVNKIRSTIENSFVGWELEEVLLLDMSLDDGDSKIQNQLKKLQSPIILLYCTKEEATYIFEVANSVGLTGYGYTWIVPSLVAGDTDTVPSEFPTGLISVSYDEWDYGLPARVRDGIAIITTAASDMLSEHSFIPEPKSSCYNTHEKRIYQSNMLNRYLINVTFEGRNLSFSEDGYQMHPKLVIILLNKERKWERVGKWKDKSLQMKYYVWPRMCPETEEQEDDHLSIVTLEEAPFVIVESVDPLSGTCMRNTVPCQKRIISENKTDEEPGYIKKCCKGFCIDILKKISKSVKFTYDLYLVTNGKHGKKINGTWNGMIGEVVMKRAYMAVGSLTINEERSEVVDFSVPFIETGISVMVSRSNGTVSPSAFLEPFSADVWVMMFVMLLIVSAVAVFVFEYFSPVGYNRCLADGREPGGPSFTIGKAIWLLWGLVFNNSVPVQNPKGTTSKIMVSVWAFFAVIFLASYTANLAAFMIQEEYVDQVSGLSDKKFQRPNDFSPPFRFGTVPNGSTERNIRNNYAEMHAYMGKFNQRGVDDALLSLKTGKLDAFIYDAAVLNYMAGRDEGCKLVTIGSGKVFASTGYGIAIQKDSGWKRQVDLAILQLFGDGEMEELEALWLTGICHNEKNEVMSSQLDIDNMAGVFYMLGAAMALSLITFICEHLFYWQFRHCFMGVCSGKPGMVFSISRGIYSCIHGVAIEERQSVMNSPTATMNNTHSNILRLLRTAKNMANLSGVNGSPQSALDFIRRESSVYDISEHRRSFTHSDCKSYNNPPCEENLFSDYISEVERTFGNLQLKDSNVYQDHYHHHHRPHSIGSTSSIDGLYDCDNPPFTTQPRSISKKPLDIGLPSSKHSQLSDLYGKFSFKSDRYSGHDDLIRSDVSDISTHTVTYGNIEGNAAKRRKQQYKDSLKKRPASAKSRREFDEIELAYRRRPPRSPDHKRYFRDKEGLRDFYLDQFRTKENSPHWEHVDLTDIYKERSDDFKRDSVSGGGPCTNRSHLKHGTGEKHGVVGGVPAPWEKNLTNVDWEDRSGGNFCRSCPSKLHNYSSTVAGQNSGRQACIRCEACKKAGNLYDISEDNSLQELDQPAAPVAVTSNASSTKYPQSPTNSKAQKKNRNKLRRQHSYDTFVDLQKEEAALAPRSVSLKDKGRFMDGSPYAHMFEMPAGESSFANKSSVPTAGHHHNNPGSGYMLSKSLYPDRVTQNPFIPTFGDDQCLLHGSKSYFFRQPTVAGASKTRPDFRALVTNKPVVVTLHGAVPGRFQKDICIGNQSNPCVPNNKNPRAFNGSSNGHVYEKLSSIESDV
T1 sequence (Q00960 27-1482 F176Y, other chains not shown): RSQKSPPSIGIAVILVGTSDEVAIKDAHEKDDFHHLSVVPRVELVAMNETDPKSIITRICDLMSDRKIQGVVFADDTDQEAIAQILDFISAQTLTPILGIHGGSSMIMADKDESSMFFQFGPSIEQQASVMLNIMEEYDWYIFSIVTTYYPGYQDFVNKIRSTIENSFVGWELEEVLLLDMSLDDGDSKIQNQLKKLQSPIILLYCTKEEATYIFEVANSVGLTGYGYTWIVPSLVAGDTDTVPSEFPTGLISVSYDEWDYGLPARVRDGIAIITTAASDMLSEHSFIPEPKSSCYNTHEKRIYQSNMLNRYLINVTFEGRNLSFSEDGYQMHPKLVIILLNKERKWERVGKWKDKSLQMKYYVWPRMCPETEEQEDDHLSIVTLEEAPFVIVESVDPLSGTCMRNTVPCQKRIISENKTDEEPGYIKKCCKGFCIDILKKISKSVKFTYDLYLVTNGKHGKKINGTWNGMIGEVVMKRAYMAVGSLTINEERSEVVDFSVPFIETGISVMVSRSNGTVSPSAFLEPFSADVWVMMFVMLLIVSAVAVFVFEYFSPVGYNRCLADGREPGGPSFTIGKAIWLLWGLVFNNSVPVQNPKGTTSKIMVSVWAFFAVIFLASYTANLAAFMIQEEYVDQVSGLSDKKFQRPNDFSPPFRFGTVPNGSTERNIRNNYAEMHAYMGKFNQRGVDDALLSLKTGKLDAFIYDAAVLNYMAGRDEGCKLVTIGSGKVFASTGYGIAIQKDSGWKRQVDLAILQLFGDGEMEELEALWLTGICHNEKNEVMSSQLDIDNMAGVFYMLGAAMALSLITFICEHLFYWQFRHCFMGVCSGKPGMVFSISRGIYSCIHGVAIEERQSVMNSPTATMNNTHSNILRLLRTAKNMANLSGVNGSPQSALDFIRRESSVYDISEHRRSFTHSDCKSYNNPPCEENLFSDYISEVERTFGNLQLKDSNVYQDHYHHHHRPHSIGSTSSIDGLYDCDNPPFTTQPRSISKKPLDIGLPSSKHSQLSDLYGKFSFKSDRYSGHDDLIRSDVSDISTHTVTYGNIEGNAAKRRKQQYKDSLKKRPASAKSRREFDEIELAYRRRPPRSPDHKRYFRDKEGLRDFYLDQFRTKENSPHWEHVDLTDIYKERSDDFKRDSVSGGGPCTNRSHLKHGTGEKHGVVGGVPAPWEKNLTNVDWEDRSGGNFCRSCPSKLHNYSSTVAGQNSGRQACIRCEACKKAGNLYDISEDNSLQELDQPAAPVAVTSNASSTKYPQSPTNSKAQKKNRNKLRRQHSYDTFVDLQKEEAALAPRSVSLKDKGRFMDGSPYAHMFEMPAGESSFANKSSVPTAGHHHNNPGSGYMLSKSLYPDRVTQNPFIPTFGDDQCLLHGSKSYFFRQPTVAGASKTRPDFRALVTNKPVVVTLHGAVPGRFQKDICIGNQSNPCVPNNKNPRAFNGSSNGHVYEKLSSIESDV
T6 sequence (Q00960 27-1482 I111A, other chains not shown): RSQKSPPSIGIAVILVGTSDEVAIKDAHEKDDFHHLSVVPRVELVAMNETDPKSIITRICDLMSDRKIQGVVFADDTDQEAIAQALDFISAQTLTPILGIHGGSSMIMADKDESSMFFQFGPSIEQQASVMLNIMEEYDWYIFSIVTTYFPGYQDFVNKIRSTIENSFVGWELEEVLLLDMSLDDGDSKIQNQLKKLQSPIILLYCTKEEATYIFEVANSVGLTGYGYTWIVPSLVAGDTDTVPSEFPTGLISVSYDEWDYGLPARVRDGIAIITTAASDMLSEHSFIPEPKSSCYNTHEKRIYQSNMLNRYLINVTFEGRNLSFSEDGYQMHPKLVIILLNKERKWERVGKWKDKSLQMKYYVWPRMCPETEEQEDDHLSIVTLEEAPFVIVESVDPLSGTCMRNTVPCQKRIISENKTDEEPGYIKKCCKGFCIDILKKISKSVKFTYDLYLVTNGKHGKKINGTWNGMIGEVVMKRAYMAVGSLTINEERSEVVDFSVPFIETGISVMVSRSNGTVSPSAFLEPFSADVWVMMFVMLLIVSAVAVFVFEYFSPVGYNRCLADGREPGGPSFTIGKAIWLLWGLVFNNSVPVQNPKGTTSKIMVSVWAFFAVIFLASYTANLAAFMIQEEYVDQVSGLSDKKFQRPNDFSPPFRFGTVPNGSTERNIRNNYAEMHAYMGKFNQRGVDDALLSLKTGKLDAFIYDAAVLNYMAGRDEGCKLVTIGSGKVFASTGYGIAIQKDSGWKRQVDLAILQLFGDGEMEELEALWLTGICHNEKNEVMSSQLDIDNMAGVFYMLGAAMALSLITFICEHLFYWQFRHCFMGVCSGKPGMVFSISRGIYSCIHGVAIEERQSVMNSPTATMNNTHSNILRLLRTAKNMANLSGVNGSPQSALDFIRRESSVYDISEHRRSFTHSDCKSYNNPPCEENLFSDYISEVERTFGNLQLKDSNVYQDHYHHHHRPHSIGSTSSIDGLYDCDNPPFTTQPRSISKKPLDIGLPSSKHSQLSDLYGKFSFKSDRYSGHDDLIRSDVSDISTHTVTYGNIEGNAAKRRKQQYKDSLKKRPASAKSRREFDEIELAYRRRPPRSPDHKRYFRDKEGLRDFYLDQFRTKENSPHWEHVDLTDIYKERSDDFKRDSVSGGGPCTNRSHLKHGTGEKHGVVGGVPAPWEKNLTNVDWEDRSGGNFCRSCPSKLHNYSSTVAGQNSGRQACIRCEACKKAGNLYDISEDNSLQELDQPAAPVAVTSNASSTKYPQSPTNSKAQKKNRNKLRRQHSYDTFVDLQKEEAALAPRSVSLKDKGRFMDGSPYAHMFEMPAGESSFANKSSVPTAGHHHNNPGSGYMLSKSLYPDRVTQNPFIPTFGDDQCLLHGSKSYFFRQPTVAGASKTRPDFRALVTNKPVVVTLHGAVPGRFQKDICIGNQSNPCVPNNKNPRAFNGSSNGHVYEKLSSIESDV

SMILES | IC50 [1] | p (slope of the dose-response curve) [1] | A2 ± SE (maximum inhibition from dose-response curve) [1] | IC50 shift compared to rac-1 [1] | p (slope) (GluN1-1a WT/GluN2B F176Y [2]) | A2, fixed-to-wildtype (*) (GluN1-1a WT/GluN2B F176Y [2]) | p (slope) (GluN1-1a F113S/GluN2B WT [3]) | A2 ± SE (GluN1-1a F113S/GluN2B WT [3]) | EPSC amplitude after washout, % of the initial baseline (SEM) [4] | inhibition at 10 µM (GluN1-1a/GluN2A NMDAR) | p (slope) (GluN1-1a L135N/GluN2B WT [5]) | A2 ± SE (GluN1-1a L135N/GluN2B WT [5]) | inhibition at 10 µM (GluN1-1a/GluN2D NMDAR) | p (slope) (GluN1-1a Y109S/GluN2B WT [7]) | A2 ± SE (GluN1-1a Y109S/GluN2B WT [7]) | A2 ± SE (GluN1-1a S132A/GluN2B WT [10]) | p (slope) (GluN1-1a WT/GluN2B F176A [11]) | A2, fixed-to-wildtype (*) (GluN1-1a WT/GluN2B F176A [11]) | inhibition at 10 µM [1] | p (slope) (GluN1-1a WT/GluN2B E236A [15]) | other results
COc1ccc2c(c1)CCN(CCCCc1ccccc1)CC2O (stereo not shown) [compound 4] | 1300 ± 483 nM | 0.70 | 100 ± 9% | 14 fold |  |  |  |  |  |  |  |  |  |  |  |  |  |  |  |  | 
Oc1ccc2c(c1)CCN(CCCCc1ccccc1)C[C@@H]2O [compound (R)-1] | 53 ± 3 nM | 1.11 | 93 ± 1% |  | 0.82 | 93% | 0.50 | 77 ± 5% | 30.9 ± 3.6% | 4 ± 1% | 0.66 | 72 ± 3% | 18 ± 3% | 1.42 | 92 ± 2% | 92 ± 2% | 0.40 | 93% | 95 ± 1% | 1.32 | EPSC amplitude, % of the initial baseline (SEM) ([4]; 2 µM compound): 60.2 ± 2.8%; EPSC amplitude, % of the initial baseline (SEM) ([4]; 7 µM compound): 13.8 ± 1.4%; IC50 (GluN1-1a WT/GluN2B F114A [6]): 4080 ± 423 nM; IC50 (GluN1-1a WT/GluN2B F176Y [8]): 107 ± 20 nM; IC50 (GluN1-1a WT/GluN2B I111A [9]): 137 ± 31 nM; IC50 (GluN1-1a WT/GluN2B E236A [12]): 194 ± 30 nM; IC50 (GluN1-1a WT/GluN2B Q110A [13]): 393 ± 24 nM; IC50 (GluN1-1a WT/GluN2B F176A [14]): 105000 ± 41000 nM; A2 ± SE (GluN1-1a WT/GluN2B E236A [15]): 85 ± 1%; IC50 (GluN1-1a S132A/GluN2B WT [16]): 106 ± 14 nM; IC50 (GluN1-1a F113S/GluN2B WT [17]): 117 ± 48 nM; p (slope) (GluN1-1a WT/GluN2B F114A [18]): 1.35; A2, fixed-to-wildtype (*) (GluN1-1a WT/GluN2B F114A [18]): 93%; IC50 (GluN1-1a L135N/GluN2B WT [19]): 293 ± 74 nM; inhibition at 10 µM (GluN1-1a/GluN2C NMDAR): 8 ± 1%; IC50 (GluN1-1a Y109S/GluN2B WT [20]): 20 ± 2 nM; p (slope) (GluN1-1a WT/GluN2B Q110A [21]): 2.18; A2 ± SE (GluN1-1a WT/GluN2B Q110A [21]): 91 ± 1%; p (slope) (GluN1-1a WT/GluN2B I111A [22]): 0.92; A2 ± SE (GluN1-1a WT/GluN2B I111A [22]): 66 ± 3%
Oc1ccc2c(c1)CCN(CCCCc1ccccc1)CC2 [compound 3] | 3370 ± 926 nM | 0.93 | 92 ± 8% | 36 fold |  |  |  |  |  |  |  |  |  |  |  |  |  |  |  |  | 
CC(C(O)c1ccc(O)cc1)N1CCC(Cc2ccccc2)CC1 (stereo not shown) [ifenprodil, reference compound] |  | 0.97 | 94 ± 2% |  | 0.57 | 94% | 1.09 | 72 ± 3% | 31.9 ± 5% | 5 ± 1% | 0.99 | 76 ± 3% | 24 ± 4% | 0.88 | 74 ± 2% | 89 ± 3% | 0.87 | 94% | 91 ± 1% | 1.18 | EPSC amplitude, % of the initial baseline (SEM) ([4]; 1 µM compound): 74.4 ± 8.9%; EPSC amplitude, % of the initial baseline (SEM) ([4]; 6 µM compound): 22.7 ± 4.7%; p (slope) (GluN1-1a S132A/GluN2B WT [10]): 0.79; A2 ± SE (GluN1-1a WT/GluN2B E236A [15]): 88 ± 5%; p (slope) (GluN1-1a WT/GluN2B F114A [18]): 0.63; A2, fixed-to-wildtype (*) (GluN1-1a WT/GluN2B F114A [18]): 94%; inhibition at 10 µM (GluN1-1a/GluN2C NMDAR): 9 ± 1%; p (slope) (GluN1-1a WT/GluN2B Q110A [21]): 0.64; A2 ± SE (GluN1-1a WT/GluN2B Q110A [21]): 98 ± 5%; p (slope) (GluN1-1a WT/GluN2B I111A [22]): 0.90; A2 ± SE (GluN1-1a WT/GluN2B I111A [22]): 68 ± 7%
